For the experiment, the target named is myotoxic Asp-49 phospholipase A2 (PLA2) from Crotalus durissus cumanensis venom. The experiment is described as follows: chromogenic PLA2 assay, […] nm, 96-well plate. It counts as biochemical. The settings on record: substrate 4-nitro-3-octanoyloxybenzoic acid type (4N3OBA, 20 μL of 10 mM); 10 mM Tris-HCl, 10 mM CaCl2, 100 mM NaCl, pH 8.0; 37 °C; 20 μg PLA2, 30 min pre-incubation; from linear portion of the dose-r.

As usually defined, the IC50 is the concentration needed to halve the response being measured. Read a low IC50 as inhibition by little substance. In turn, `O=[N+]([O-])c1ccc(C(=S)SCc2ccccc2)cc1` [I, Benzyl 4-nitrobenzenecarbodithioate] showed a half-maximal inhibitory concentration (IC50) of 55.6 ± 4.6 µM.
